Literature values as cited in patent US20060194234A1, “Methods for identifying small molecules that bind specific RNA structural motifs” (PTC Therapeutics, Inc., priority 2001, published 2006).

Tests used:
[1] = tested on: IIB (or RRE) region of HIV RNA; settings: appears to result from competitive binding directly to the RRE RNA structural motif
[2] = tested on: 60-mer from ribosomal RNA; settings: literature statement in background

| block of the binding of Rev to its viral recognition element in the IIB (or RRE) region of HIV RNA [1] | binding to a 60-mer from ribosomal RNA [2] | Molecule |
| --- | --- | --- |
| can block the binding |  | NC[C@@H]1O[C@H](O[C@H]2[C@@H](O)[C@H](O[C@@H]3[C@@H](O)[C@H](N)C[C@H](N)[C@H]3O[C@H]3O[C@H](CN)[C@@H](O)[C@H](O)[C@H]3N)O[C@@H]2CO)[C@H](N)[C@@H](O)[C@@H]1O [neomycin B] |
| can block the binding |  | NC[C@H]1O[C@H](O[C@H]2[C@H](O)[C@@H](O[C@H]3O[C@H](CO)[C@@H](O)[C@H](N)[C@H]3O)[C@H](N)C[C@@H]2N)[C@H](N)C[C@@H]1O [tobramycin] |
|  | binds tightly | thiostreptone |

| Molecule | block of the binding of Rev to its viral recognition element in the IIB (or RRE) region of HIV RNA [1] | binding to a 60-mer from ribosomal RNA [2] |
| --- | --- | --- |
| NC[C@@H]1O[C@H](O[C@H]2[C@@H](O)[C@H](O[C@@H]3[C@@H](O)[C@H](N)C[C@H](N)[C@H]3O[C@H]3O[C@H](CO)[C@@H](O)C[C@H]3N)O[C@@H]2CO)[C@H](N)[C@@H](O)[C@@H]1O[C@H]1O[C@H](CO)[C@@H](O)[C@H](O)[C@@H]1O [lividomycin A] | can block the binding |  |
